System: NCI-H1876 complex spheroid growth, % test/control
Assay: Anticancer human tumor NCI-H1876 cell line growth inhibition [Asc];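 note: compound exposure lasted 7 days starting three days after seeding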;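 for viability, T/C: 100% = DMSO vehicle control wells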
Settings: for viability, T/C: stronger effect = lower value
Method in brief: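 Complex spheroids combining tumor cells with HUVEC endothelial cells and human MSCs, at 37 degrees C, 5% CO2; agents tested alone or combined, half-log dilutions from at or near clinical Cmax, or 10 microM if Cmax unknown.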

[1] = curve of first compound, second compound 0.00316 µM
[2] = curve of first compound, second compound 0.01 µM
[3] = curve of first compound, second compound 0.0316 µM
[4] = curve of first compound, second compound 0.1 µM
[5] = curve of first compound, second compound 0.316 µM
[6] = curve of first compound, second compound 1 µM
[7] = second compound 0.00316 µM, first compound 0.00316 µM
[8] = second compound 0.00316 µM, first compound 0.01 µM
[9] = second compound 0.00316 µM, first compound 0.0316 µM
[10] = second compound 0.00316 µM, first compound 0.1 µM
[11] = second compound 0.00316 µM, first compound 0.316 µM
[12] = second compound 0.00316 µM, first compound 1 µM
[13] = second compound 0.01 µM, first compound 0.00316 µM
[14] = second compound 0.01 µM, first compound 0.01 µM
[15] = second compound 0.01 µM, first compound 0.0316 µM
[16] = second compound 0.01 µM, first compound 0.1 µM
[17] = second compound 0.01 µM, first compound 0.316 µM
[18] = second compound 0.01 µM, first compound 1 µM
[19] = second compound 0.0316 µM, first compound 0.00316 µM
[20] = second compound 0.0316 µM, first compound 0.01 µM
[21] = second compound 0.0316 µM, first compound 0.0316 µM
[22] = second compound 0.0316 µM, first compound 0.1 µM
[23] = second compound 0.0316 µM, first compound 0.316 µM
[24] = second compound 0.0316 µM, first compound 1 µM
[25] = second compound 0.1 µM, first compound 0.00316 µM
[26] = second compound 0.1 µM, first compound 0.01 µM
[27] = second compound 0.1 µM, first compound 0.0316 µM
[28] = second compound 0.1 µM, first compound 0.1 µM
[29] = second compound 0.1 µM, first compound 0.316 µM
[30] = second compound 0.1 µM, first compound 1 µM
[31] = second compound 0.316 µM, first compound 0.00316 µM
[32] = second compound 0.316 µM, first compound 0.01 µM
[33] = second compound 0.316 µM, first compound 0.0316 µM
[34] = second compound 0.316 µM, first compound 0.1 µM
[35] = second compound 0.316 µM, first compound 0.316 µM
[36] = second compound 0.316 µM, first compound 1 µM
[37] = second compound 1 µM, first compound 0.00316 µM
[38] = second compound 1 µM, first compound 0.01 µM
[39] = second compound 1 µM, first compound 0.0316 µM
[40] = second compound 1 µM, first compound 0.1 µM
[41] = second compound 1 µM, first compound 0.316 µM
[42] = second compound 1 µM, first compound 1 µM

O=C(c1ccc(F)c(F)c1Nc1ccc(I)cc1F)N1CC(O)([C@@H]2CCCCN2)C1 + CNC(C)C(=O)NC1CN(S(=O)(=O)c2cccc(S(=O)(=O)N3CCC4CCC(C(=O)NC(c5ccccc5)c5ccccc5)N4C(=O)C(NC(=O)C(C)NC)C3)c2)CCC2CCC(C(=O)NC(c3ccccc3)c3ccccc3)N2C1=O
IC50 [1]: > 1000 nM | IC50 [2]: > 1000 nM | IC50 [3]: > 1000 nM | IC50 [4]: > 1000 nM | IC50 [5]: > 1000 nM | IC50 [6]: > 1000 nM | viability, T/C [7]: 109% | viability, T/C [8]: 87.3% | viability, T/C [9]: 114% | viability, T/C [10]: 80.5% | viability, T/C [11]: 80.5% | viability, T/C [12]: 70.6% | viability, T/C [13]: 110% | viability, T/C [14]: 93.6% | viability, T/C [15]: 96.2% | viability, T/C [16]: 82.3% | viability, T/C [17]: 90.8% | viability, T/C [18]: 81.7% | viability, T/C [19]: 98.5% | viability, T/C [20]: 90.3% | viability, T/C [21]: 102% | viability, T/C [22]: 87.3% | viability, T/C [23]: 85.5% | viability, T/C [24]: 83.2% | viability, T/C [25]: 106% | viability, T/C [26]: 103% | viability, T/C [27]: 96.3% | viability, T/C [28]: 89.8% | viability, T/C [29]: 86.3% | viability, T/C [30]: 90.5% | viability, T/C [31]: 106% | viability, T/C [32]: 90.1% | viability, T/C [33]: 89.9% | viability, T/C [34]: 96.9% | viability, T/C [35]: 97% | viability, T/C [36]: 72.3% | viability, T/C [37]: 107% | viability, T/C [38]: 93.7% | viability, T/C [39]: 99.2% | viability, T/C [40]: 97.4% | viability, T/C [41]: 88% | viability, T/C [42]: 69.8%

COc1c(OCCCN2CCOCC2)ccc2c3n(c(=NC(=O)c4cnc(N)nc4)nc12)CCN3 + CNC(C)C(=O)NC1CN(S(=O)(=O)c2cccc(S(=O)(=O)N3CCC4CCC(C(=O)NC(c5ccccc5)c5ccccc5)N4C(=O)C(NC(=O)C(C)NC)C3)c2)CCC2CCC(C(=O)NC(c3ccccc3)c3ccccc3)N2C1=O
IC50 [1]: > 1000 nM | IC50 [2]: 734 nM | IC50 [3]: 789 nM | IC50 [4]: 701 nM | IC50 [5]: > 1000 nM | IC50 [6]: 901 nM | viability, T/C [7]: 106% | viability, T/C [8]: 107% | viability, T/C [9]: 103% | viability, T/C [10]: 81.5% | viability, T/C [11]: 64.5% | viability, T/C [12]: 49.2% | viability, T/C [13]: 105% | viability, T/C [14]: 106% | viability, T/C [15]: 107% | viability, T/C [16]: 82.1% | viability, T/C [17]: 63.3% | viability, T/C [18]: 45% | viability, T/C [19]: 100% | viability, T/C [20]: 103% | viability, T/C [21]: 99.4% | viability, T/C [22]: 84.1% | viability, T/C [23]: 62.5% | viability, T/C [24]: 46.7% | viability, T/C [25]: 102% | viability, T/C [26]: 101% | viability, T/C [27]: 98.6% | viability, T/C [28]: 82.3% | viability, T/C [29]: 63.8% | viability, T/C [30]: 44% | viability, T/C [31]: 107% | viability, T/C [32]: 117% | viability, T/C [33]: 93.6% | viability, T/C [34]: 86.2% | viability, T/C [35]: 70% | viability, T/C [36]: 56.4% | viability, T/C [37]: 105% | viability, T/C [38]: 109% | viability, T/C [39]: 96.6% | viability, T/C [40]: 86.2% | viability, T/C [41]: 67.5% | viability, T/C [42]: 48.2%

Cc1c(S(C)(=O)=O)c(-c2cc(F)cc(N3CCN(c4ccc(NS(=O)(=O)c5ccc(NC(CCN6CCC(C(=O)OCCCP(=O)(O)O)CC6)CSc6ccccc6)c(S(=O)(=O)C(F)(F)F)c5)cc4)CC3)c2)c(-c2ccc(Cl)cc2)n1C(C)C (stereo not drawn)
viability, T/C (compound 0.0316 µM): 109% [middle of 7 runs] | viability, T/C (compound 0.1 µM): 101% [middle of 7 runs] | viability, T/C (compound 0.316 µM): 96.3% [middle of 7 runs] | viability, T/C (compound 1 µM): 90.5% [middle of 7 runs] | viability, T/C (compound 3.16 µM): 95.5% [middle of 7 runs] | viability, T/C (compound 10 µM): 102% [middle of 7 runs] | IC50 (compound alone, run of 11/07/2022): > 10000 nM

C#Cc1c(F)ccc2cc(O)cc(-c3ncc4c(N5CC6CCC(C5)N6)nc(OCC56CCCN5CC(F)C6)nc4c3F)c12 (stereo not drawn) + Cc1c(S(C)(=O)=O)c(-c2cc(F)cc(N3CCN(c4ccc(NS(=O)(=O)c5ccc(NC(CCN6CCC(C(=O)OCCCP(=O)(O)O)CC6)CSc6ccccc6)c(S(=O)(=O)C(F)(F)F)c5)cc4)CC3)c2)c(-c2ccc(Cl)cc2)n1C(C)C
IC50 [3]: > 10000 nM | IC50 [4]: > 10000 nM | IC50 [5]: > 10000 nM | IC50 [6]: > 10000 nM | IC50 (curve of first compound, second compound 3.16 µM): > 10000 nM | IC50 (curve of first compound, second compound 10 µM): > 10000 nM | viability, T/C [21]: 98.7% | viability, T/C [22]: 84.9% | viability, T/C [23]: 108% | viability, T/C [24]: 91.2% | viability, T/C (second compound 0.0316 µM, first compound 3.16 µM): 96.8% | viability, T/C (second compound 0.0316 µM, first compound 10 µM): 92.9% | viability, T/C [27]: 92.2% | viability, T/C [28]: 101% | viability, T/C [29]: 99.3% | viability, T/C [30]: 83.1% | viability, T/C (second compound 0.1 µM, first compound 3.16 µM): 90.6% | viability, T/C (second compound 0.1 µM, first compound 10 µM): 88% | viability, T/C [33]: 106% | viability, T/C [34]: 90.5% | viability, T/C [35]: 85.5% | viability, T/C [36]: 90.7% | viability, T/C (second compound 0.316 µM, first compound 3.16 µM): 86.5% | viability, T/C (second compound 0.316 µM, first compound 10 µM): 86.7% | viability, T/C [39]: 90% | viability, T/C [40]: 97.8% | viability, T/C [41]: 102% | viability, T/C [42]: 92% | viability, T/C (second compound 1 µM, first compound 3.16 µM): 88.2% | viability, T/C (second compound 1 µM, first compound 10 µM): 73.5% | viability, T/C (second compound 3.16 µM, first compound 0.0316 µM): 101% | viability, T/C (second compound 3.16 µM, first compound 0.1 µM): 108% | viability, T/C (second compound 3.16 µM, first compound 0.316 µM): 89.5% | viability, T/C (second compound 3.16 µM, first compound 1 µM): 87.4% | viability, T/C (second compound 3.16 µM, first compound 3.16 µM): 87.3% | viability, T/C (second compound 3.16 µM, first compound 10 µM): 74.7% | viability, T/C (second compound 10 µM, first compound 0.0316 µM): 93.2% | viability, T/C (second compound 10 µM, first compound 0.1 µM): 99.4% | viability, T/C (second compound 10 µM, first compound 0.316 µM): 109% | viability, T/C (second compound 10 µM, first compound 1 µM): 93.6% | viability, T/C (second compound 10 µM, first compound 3.16 µM): 95.8% | viability, T/C (second compound 10 µM, first compound 10 µM): 77%

Reference: PubChem BioAssay AID1963441 (Molecular Pharmacology Branch, DTP, NCI, 2024)
